The values below come from ChEMBL document CHEMBL1123200 (J Med Chem, 1986).

Experiment [1] is filed under the species Rattus norvegicus.
For experiment [2], the species on record is Rattus norvegicus. The source holds these as a separate data set.
The species named for experiment [3] is Rattus norvegicus. Description: Inhibition was measured for [3H]GABA-uptake from rat synaptosomal membrane. In kind it is functional.

With `NCCCC(=O)O`, the Vmax (pM min-1 mg-1) in the experiment listed under Rattus norvegicus [1] turned out to be 881. Further, in the experiment filed under Rattus norvegicus [2], the Km was found to be 4.3 µM.

On to `O=C(O)C1CCCNC1` (stereo not given) [NIPECOTIC ACID], for which the Ki in the experiment filed under Rattus norvegicus [3] was determined as 3.8 µM.

`O=C(O)C1=CC(=C(c2ccccc2)c2ccccc2)CNC1`: in the experiment listed under Rattus norvegicus [3], the Ki amounted to 104 µM.

In turn, `CN1CC(C(=O)O)=CC(=C(c2ccccc2)c2ccccc2)C1` returned a Ki in the experiment filed under Rattus norvegicus [3] of 12.9 µM.
